Structures can show the parent of a compound that is named as a salt.
Tests used:
[1] = target: Kelch domain of human KEAP1 (321-624 aa) (Homo sapiens (Human), UniProt Q14145); test: KEAP1 KELCH ThermoFluor binding assay; conditions: KEAP Kelch […], 1,8-ANS, pH 7.0, average of results obtained, read-out: Tf Kd;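 also: Ligand-induced melting temperature shift of E. coli-expressed KEAP1 Kelch protein, Kd estimated from concentration-response curves of ΔTm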
[2] = test system: Glo-Response ARE-luc2P HEK293 cell line; test: ARE luciferase reporter cell-based assay; conditions: Homo sapiens, HEK293, 24 h, average of results obtained;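 also: luciferase signal tracks Nrf2 activation of the ARE once compounds disrupt KEAP1-Nrf2 binding, read with One-Glo reagent, DMSO serving as low control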

Sequence of Kelch domain of human KEAP1 (321-624 aa) (Q14145 321-624): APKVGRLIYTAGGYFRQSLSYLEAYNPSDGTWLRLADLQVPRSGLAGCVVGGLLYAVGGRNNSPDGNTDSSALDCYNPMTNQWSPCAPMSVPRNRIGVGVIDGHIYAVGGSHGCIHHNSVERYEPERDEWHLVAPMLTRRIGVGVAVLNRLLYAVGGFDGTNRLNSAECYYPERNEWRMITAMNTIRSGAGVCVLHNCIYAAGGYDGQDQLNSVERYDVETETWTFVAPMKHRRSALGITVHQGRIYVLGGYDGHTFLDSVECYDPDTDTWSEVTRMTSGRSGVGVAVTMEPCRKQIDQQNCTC

Kd [1] [nM]	Structure (SMILES)	EC50 [2] [nM]
< 1	Cc1ccc([C@H](CC(=O)O)c2ccn3c(C(F)(F)F)nnc3c2C)cc1CN1C[C@@H]2CCC(F)(F)CN2c2ncccc2S1(=O)=O (single isomer, unassigned) [Example 453, (*S)-3-(3-(((*S)-10,10-Difluoro-5,5-dioxido-7,7a,8,9,10,11-hexahydro-6H-dipyrido[2,1-d:2′,3′-f][1,2,5]thiadiazepin-6-yl)methyl)-4-methylphenyl)-3-(8-methyl-3-(trifluoromethyl)-[1,2,4]triazolo[4,3-a]pyridin-7-yl)propanoic Acid]	162
1210	Cc1ccc([C@H](c2ccn3c(C(F)(F)F)nnc3c2C)C(C)(C)C(=O)O)cc1CN1CC2(CC2)Oc2nc(OCCN3CCCC3)c(C)cc2S1(=O)=O (single isomer, unassigned) [Example 658, (*R)-2,2-dimethyl-3-(4-methyl-3-((8′-methyl-1′,1′-dioxido-7′-(2-(pyrrolidin-1-yl)ethoxy)spiro[cyclopropane-1,4′-pyrido[2,3-b][1,4,5]oxathiazepin]-2′(3′H)-yl)methyl)phenyl)-3-(8-methyl-3-(trifluoromethyl)-[1,2,4]triazolo[4,3-a]pyridin-7-yl)propanoic Acid]	6050
< 1	Cc1cnc2c(c1)S(=O)(=O)N(Cc1cc([C@@H](c3ccn4c(C(F)(F)F)nnc4c3C)C(C)(C)C(=O)O)ccc1C)C[C@]1(CCOC1)O2 (single isomer, unassigned) [Example 383, (*S)-2,2-Dimethyl-3-(4-methyl-3-(((*S)-8′-methyl-1′,1′-dioxido-4,5-dihydro-2H-spiro[furan-3,4′-pyrido[2,3-b][1,4,5]oxathiazepin]-2′(3′H)-yl)methyl)phenyl)-3-(8-methyl-3-(trifluoromethyl)-[1,2,4]triazolo[4,3-a]pyridin-7-yl)propanoic Acid]	1.2
< 1	Cc1ccc(C(CC(=O)O)c2ccc3c(nnn3C3CC3)c2C)cc1CN1C[C@@H]2CCCCN2c2ncccc2S1(=O)=O (single isomer, unassigned) [Example 399, (*R)-3-(1-Cyclopropyl-4-methyl-1H-benzo[d][1,2,3]triazol-5-yl)-3-(3-(((*S)-5,5-dioxido-7,7a,8,9,10,11-hexahydro-6H-dipyrido[2,1-d:2′,3′-][1,2,5]thiadiazepin-6-yl)methyl)-4-methylphenyl)propanoic Acid]	92.9
< 1	Cc1ccc([C@H](CC(=O)O)c2ccn3c(C(F)(F)F)nnc3c2C)cc1CN1C[C@H]2CCCCN2c2ccccc2S1(=O)=O (single isomer, unassigned) [Example 300, (*S)-3-(3-(((*R)-5,5-Dioxido-7,7a,8,9,10,11-hexahydro-6H-benzo[f]pyrido[2,1-d][1,2,5]thiadiazepin-6-yl)methyl)-4-methylphenyl)-3-(8-methyl-3-(trifluoromethyl)-[1,2,4]triazolo[4,3-a]pyridin-7-yl)propanoic Acid]	5
< 1	Cc1ccc([C@@H](c2ccn3c(C(F)(F)F)nnc3c2C)C(C)(C)C(=O)O)cc1CN1CC2(CC2)Oc2nc(OCCN3CC(F)C3)c(C)cc2S1(=O)=O (single isomer, unassigned) [Example 596, (*S)-3-(3-((7′-(2-(3-fluoroazetidin-1-yl)ethoxy)-8′-methyl-1′,1′-dioxidospiro[cyclopropane-1,4′-pyrido[2,3-b][1,4,5]oxathiazepin]-2′(3′H)-yl)methyl)-4-methylphenyl)-2,2-dimethyl-3-(8-methyl-3-(trifluoromethyl)-[1,2,4]triazolo[4,3-a]pyridine-7-yl)propanoic Acid]	3.08

Second part, the compound before the results:

Structure (SMILES)	Kd [1] [nM]	EC50 [2] [nM]
Cc1ccc([C@H](CC(=O)O)c2ccn3c(C(F)(F)F)nnc3c2C)cc1CN1CC2(COC2)Oc2ccccc2S1(=O)=O (single isomer, unassigned) [Example 26, (*S)-3-(3-((1,1-Dioxidospiro[benzo[b][1,4,5]oxathiazepine-4,3′-oxetan]-2(3H)-yl)methyl)-4-methylphenyl)-3-(8-methyl-3-(trifluoromethyl)-[1,2,4]triazolo[4,3-a]pyridin-7-yl)propanoic Acid]	0.174	32
Cc1ccc(C(CC(=O)O)c2cc(OC(F)F)c3c(c2)nnn3C)cc1CN1C[C@H]2CCCN2c2ncccc2S1(=O)=O (mixture of isomers) [Example 246, 3-(7-(Difluoromethoxy)-1-methyl-1H-benzo[d][1,2,3]triazol-5-yl)-3-(3-(((R)-5,5-dioxido-7a,8,9,10-tetrahydropyrido[2,3-f]pyrrolo[2,1-d][1,2,5]thiadiazepin-6(7H)-yl)methyl)-4-methylphenyl)propanoic Acid and its Trifluoroacetic Acid Salt]	< 1	87.3
Cc1ccc(C(CC(=O)O)c2cc(OC3CC3)c3c(c2)nnn3C)cc1CN1C[C@H]2CCCN2c2ncccc2S1(=O)=O (stereo partly drawn) [Example 4, 3-(7-Cyclopropoxy-1-methyl-1H-benzo[d][1,2,3]triazol-5-yl)-3-(3-(((R)-5,5-dioxido-7a,8,9,10-tetrahydropyrido[2,3-f]pyrrolo[2,1-d][1,2,5]thiadiazepin-6(7H)-yl)methyl)-4-methylphenyl)propanoic acid]	0.24	79
Cc1ccc([C@H](CC(=O)O)c2ccn3c(C(F)(F)F)nnc3c2C)cc1CN1C[C@H]2CCCCN2c2nc(C(N)=O)ccc2S1(=O)=O (single isomer, unassigned) [Example 205, (*S)-3-(3-(((*R)-2-Carbamoyl-5,5-dioxido-7,7a,8,9,10,11-hexahydro-6H-dipyrido[2,1-d:2′,3′-f][1,2,5]thiadiazepin-6-yl)methyl)-4-methylphenyl)-3-(8-methyl-3-(trifluoromethyl)-[1,2,4]triazolo[4,3-a]pyridin-7-yl)propanoic Acid]	< 1	130
Cc1ccc([C@H](c2cc(C)n3c(C(F)(F)F)nnc3c2C)C(C)C(=O)O)cc1CN1C[C@@H]2CCCCN2c2ncccc2S1(=O)=O (relative stereo) [Example 133, (3*R)-3-(5,8-Dimethyl-3)-(trifluoromethyl)-[1,2,4-triazolo[4,3-a]pyridine-7-yl)-3-(3-(((*S)-5,5-dioxido-7,7a,8,9,10,11-hexahydro-6H-dipyrido[2,1-d:2′,3′-f][1,2,5]thiadiazepin-6-yl)methyl)-4-methylphenyl)-2-methylpropanoic Acid]	< 1	2
Cc1ccc(C(CC(=O)O)c2ccn3c(C(F)(F)F)nnc3c2C)cc1CN1CC(C)(C)Oc2ncccc2S1(=O)=O (centres unmarked) [Example 268, 3-(3-((4,4-Dimethyl-1,1-dioxido-3,4-dihydro-2H-pyrido[2,3-b][1,4,5]oxathiazepin-2-yl)methyl)-4-methylphenyl)-3-(8-methyl-3-(trifluoromethyl)-[1,2,4]triazolo[4,3-a]pyridin-7-yl)propanoic Acid]	< 1	516
CCc1nnc2c(C)c(C(CC(=O)O)c3ccc(C)c(CN4C[C@H]5CCCN5c5ccccc5S4(=O)=O)c3)ccn12 (stereo partly drawn) [Example 278, 3-(3-(((R)-5,5-Dioxido-7a,8,9,10-tetrahydrobenzo[f]pyrrolo[2,1-d][1,2,5]thiadiazepin-6(7H)-yl)methyl)-4-methylphenyl)-3-(3-ethyl-8-methyl-[1,2,4]triazolo[4,3-a]pyridin-7-yl)propanoic Acid]	< 1	467

— patent publication US10947252B2, “Inhibitors of KEAP1-Nrf2 protein-protein interaction” (Janssen Pharmaceutica NV, priority 2018, dated 2021)
